Target: T1, human ABHD6 (Homo sapiens, UniProt Q9BV23)
T1 construct: expressed in transfected cells; host or cells: HEK293T (transient transfection; membrane fraction)
T1 sequence (Q9BV23 1-337): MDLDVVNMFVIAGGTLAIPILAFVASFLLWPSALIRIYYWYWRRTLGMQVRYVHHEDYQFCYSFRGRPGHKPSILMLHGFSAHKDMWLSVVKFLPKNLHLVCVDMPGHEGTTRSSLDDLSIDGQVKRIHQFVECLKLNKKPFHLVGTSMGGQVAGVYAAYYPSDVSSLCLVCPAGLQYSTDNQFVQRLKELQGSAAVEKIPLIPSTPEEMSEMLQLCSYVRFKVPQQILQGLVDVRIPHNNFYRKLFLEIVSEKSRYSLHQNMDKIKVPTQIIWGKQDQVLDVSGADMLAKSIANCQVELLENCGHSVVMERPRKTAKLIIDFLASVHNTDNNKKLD
Assay: ABHD6 activity assay (AA-HNA fluorogenic substrate)
Assay type: biochemical
Details: 100 µM, AA-HNA substrate assay, Supplementary Table 2; read-out: ABHD6 Inhibition (%)
Method: (§1) HEK293T cells were cultured at 37°C under 5% CO2 in a DMEM medium with stable glutamine and phenolred, containing 10% fetal bovine serum (FBS, Gibco), penicillin, and streptomycin. The cells were passaged every 2–3 days by resuspension in the medium at ∼90% confluence. The membranes used in this study were prepared from transiently transfected HEK293T cells. Briefly, 1 day prior to transfection, ∼10^7 cells were seeded in 15 cm plates, and then the cells were transfected by the addition of a mixture of polyethyleneimine and plasmid DNA (3:1, 60, and 20 µg) in 2 ml of medium (without serum). Of note, the empty pcDNA3.1 vector was used in the Mock-control. After 24 h, the medium was removed and the cells were refreshed with fresh medium. After 72 h, the cells were harvested by suspending in 20 ml of medium, and the supernatant was removed by centrifugation for 10 min at 1,000 rpm. The cell pellet was flash frozen in liquid nitrogen and stored at −80°C until use. Subsequently, the cell pellets were suspended in lysis buffer (30 mM Tirs, pH 7.5, 1 mM MgCl2, 25 U/ml Benzonase), which was homogenized by sonication (3 × 10 bursts) and incubated for 30 min on ice. The membrane fractions overexpressing MAGL/ABHD6/ABHD12 were separated by ultracentrifuge (100,000 g, 30 min, 4 C). The protein concentration was determined with a Qubit protein assay (Invitrogen). The protein samples were quickly frozen in liquid nitrogen and stored at −80 C until use.
The MAGL activity assay is based on the hydrolysis of 2-arachidonoylglycerol-based fluorogenic substrate by MAGL-overexpressing membrane preparations from transiently transfected HEK293T cells. In brief, the reactions were performed in HEPES buffer (40 mM HEPES, pH 7.5, 0.1 mg/ml BSA) in black, flat bottom 96-well plates. The final protein concentration of membrane fractions from overexpressing human MAGL HEK293T cells was 12.5 μg/ml 5 µl of inhibitors were added from×40 concentrated DMSO stocks in the 96-well plate containing 145 µl assay buffer, followed by the addition of 40 µl of the protein (12.5 μg/ml). After the incubation of the inhibitor-protein complex for 30 min, 10 µl of the fluorogenic substrate (AA-HNA, 200 µM) was added and fluorescence was measured in 1 min intervals for 30 min on a plate reader (BioTek). Final assay concentrations: 12.5 μg/ml MAGL, […], and […] in the total volume of 200 µl. All the measurements were performed in N = 2, n = 2 for inhibitors and N = 2, n = 4 for controls with Z′ value ≥0.6. The slope is determined in 5–15 min for all the experiments.
The ABHD6 activity assay is based on the same principle as the MAGL activity assay described earlier, but with human ABHD6 overexpressing membrane preparations at a final protein concentration of 50 μg/ml and 200 µM AA-HNA. Other conditions are the same as those of the MAGL activity assay.

First: CC1(C)CC[C@]2(C(=O)O)CC[C@]3(C)C(=CC[C@@H]4[C@@]5(C)CC[C@H](O)C(C)(C)[C@@H]5CC[C@]43C)[C@@H]2C1 [compound 59, Oleanolic Acid]
Second: C[C@H]1[C@H](C)CC[C@]2(C(=O)O)CC[C@]3(C)C(=CC[C@@H]4[C@@]5(C)C[C@@H](O)[C@H](O)[C@@](C)(CO)[C@@H]5CC[C@]43C)[C@H]12 [compound 12, Asiatic acid]
The activity at 100 µM of the first is higher: 98.5% for the first, 95.6% for the second.

First: C[C@H]1[C@H](OC(=O)CCC(=O)O)O[C@@H]2O[C@@]3(C)CC[C@H]4[C@H](C)CC[C@@H]1[C@@]24OO3 [compound 11, Artesunate]
Second: O=C(/C=C/c1ccc(O)c(O)c1)O[C@@H]1C[C@](O)(C(=O)O)C[C@@H](O)[C@H]1O [compound 20, Chlorogenic acid]
The activity at 100 µM of the first is lower: 46.5% for the first, 102% for the second.

First: C=CCc1ccc(O)c(-c2cc(CC=C)ccc2O)c1 [compound 48, Magnolol]
Second: C=C[C@H]1CN2CC[C@H]1C[C@H]2[C@H](O)c1ccnc2ccccc12 [compound 21, Cinchonidine]
The activity at 100 µM of the first is lower: 101% for the first, 109% for the second.

For `COc1ccc(-c2cc(=O)c3c(OC)c(OC)c(OC)c(OC)c3o2)cc1OC` [compound 58, Nobiletin], the activity at 100 µM was 100%.

Target: T2, human ABHD12 (Homo sapiens, UniProt Q8N2K0)
T2 construct: expressed in transfected cells; host or cells: HEK293T (transient transfection; membrane fraction)
T2 sequence (Q8N2K0 1-398): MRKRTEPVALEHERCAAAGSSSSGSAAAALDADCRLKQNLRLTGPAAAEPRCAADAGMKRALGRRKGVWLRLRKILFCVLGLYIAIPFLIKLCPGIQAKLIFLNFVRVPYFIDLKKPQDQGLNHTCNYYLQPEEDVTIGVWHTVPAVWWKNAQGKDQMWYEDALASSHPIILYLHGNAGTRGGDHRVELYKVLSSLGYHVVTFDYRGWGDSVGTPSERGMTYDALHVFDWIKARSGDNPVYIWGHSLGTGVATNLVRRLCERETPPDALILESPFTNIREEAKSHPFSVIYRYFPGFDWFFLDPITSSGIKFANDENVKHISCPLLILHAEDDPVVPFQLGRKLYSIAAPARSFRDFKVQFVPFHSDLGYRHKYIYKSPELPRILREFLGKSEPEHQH
Assay: ABHD12 activity by competitive ABPP with FP-TAMRA
Assay type: biochemical
Details: 100 µM compound; competitive ABPP with probe FP-TAMRA (250 nM); read-out: ABHD12 Inhibition (%)
Method: as §1
The ABHD12 activity assay is based on competitive activity-based protein profiling (ABPP) with human ABHD12 overexpressing membrane fractions. Briefly, the membrane proteome (1 mg/ml, 20 µl) was incubated at room temperature with 0.5 µl DMSO (vehicle) or inhibitor for 30 min. Subsequently, the samples were treated with the activity-based probe FP-TAMRA (250 nM, final concentration) for 20 min. The reactions were then quenched by 10 µl sample buffer (×4) (final concentrations: 60 mM Tris, pH 6.8, 2% (w/v) SDS, 10% (v/v) glycerol, 5% (v/v) β-mercaptoethanol, 0.01% (v/v) bromophenol blue). The samples were directly loaded and resolved on SDS-PAGE gel (10% acrylamide), which were then scanned using a ChemiDoc MP system (Cy3 settings, BioRad).

Compared with `CC1(C)CC[C@]2(C(=O)O)CC[C@]3(C)C(=CC[C@@H]4[C@@]5(C)CC[C@H](O)C(C)(C)[C@@H]5CC[C@]43C)[C@@H]2C1` [compound 59, Oleanolic Acid], `C[C@H]1[C@H](C)CC[C@]2(C(=O)O)CC[C@]3(C)C(=CC[C@@H]4[C@@]5(C)C[C@@H](O)[C@H](O)[C@@](C)(CO)[C@@H]5CC[C@]43C)[C@H]12` [compound 12, Asiatic acid] is higher in activity at 100 µM: 57.7% for the first, 72.4% for the second.

Going from `C[C@H]1[C@H](OC(=O)CCC(=O)O)O[C@@H]2O[C@@]3(C)CC[C@H]4[C@H](C)CC[C@@H]1[C@@]24OO3` [compound 11, Artesunate] to `O=C(/C=C/c1ccc(O)c(O)c1)O[C@@H]1C[C@](O)(C(=O)O)C[C@@H](O)[C@H]1O` [compound 20, Chlorogenic acid], the activity at 100 µM rises from 56.2% to 78.1%.

First: C=CCc1ccc(O)c(-c2cc(CC=C)ccc2O)c1 [compound 48, Magnolol]
Second: C=C[C@H]1CN2CC[C@H]1C[C@H]2[C@H](O)c1ccnc2ccccc12 [compound 21, Cinchonidine]
The activity at 100 µM of the first is higher: 107% for the first, 77.6% for the second.

`COc1ccc(-c2cc(=O)c3c(OC)c(OC)c(OC)c(OC)c3o2)cc1OC` [compound 58, Nobiletin] showed an activity at 100 µM of 75.6%.

Target: T3, human MAGL (Homo sapiens, UniProt Q99685)
T3 construct: expressed in transfected cells; host or cells: HEK293T (transient transfection; membrane fraction)
T3 sequence (Q99685 1-303): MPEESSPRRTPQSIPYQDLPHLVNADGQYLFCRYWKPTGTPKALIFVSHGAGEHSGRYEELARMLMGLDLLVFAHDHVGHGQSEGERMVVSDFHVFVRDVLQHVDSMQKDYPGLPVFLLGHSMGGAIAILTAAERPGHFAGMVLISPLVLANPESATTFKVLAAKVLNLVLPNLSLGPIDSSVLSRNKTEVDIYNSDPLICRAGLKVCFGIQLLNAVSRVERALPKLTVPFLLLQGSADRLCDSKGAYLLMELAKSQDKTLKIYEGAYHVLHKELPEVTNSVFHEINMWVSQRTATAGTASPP
Assay: MAGL activity assay (AA-HNA fluorogenic substrate)
Assay type: biochemical
Details: 100 µM, AA-HNA substrate assay, Supplementary Table 1; read-out: MAGL Inhibition (%)
Method: as §1
The MAGL activity assay is based on the hydrolysis of 2-arachidonoylglycerol-based fluorogenic substrate by MAGL-overexpressing membrane preparations from transiently transfected HEK293T cells. In brief, the reactions were performed in HEPES buffer (40 mM HEPES, pH 7.5, 0.1 mg/ml BSA) in black, flat bottom 96-well plates. […] After the incubation of the inhibitor-protein complex for 30 min, 10 µl of the fluorogenic substrate (AA-HNA, 200 µM) was added and fluorescence was measured in 1 min intervals for 30 min on a plate reader (BioTek). […] All the measurements were performed in N = 2, n = 2 for inhibitors and N = 2, n = 4 for controls with Z′ value ≥0.6. The slope is determined in 5–15 min for all the experiments.

Compared with `CC1(C)CC[C@]2(C(=O)O)CC[C@]3(C)C(=CC[C@@H]4[C@@]5(C)CC[C@H](O)C(C)(C)[C@@H]5CC[C@]43C)[C@@H]2C1` [compound 59, Oleanolic Acid], `C[C@H]1[C@H](C)CC[C@]2(C(=O)O)CC[C@]3(C)C(=CC[C@@H]4[C@@]5(C)C[C@@H](O)[C@H](O)[C@@](C)(CO)[C@@H]5CC[C@]43C)[C@H]12` [compound 12, Asiatic acid] is lower in activity at 100 µM: 130% for the first, 86% for the second.

First: C[C@H]1[C@H](OC(=O)CCC(=O)O)O[C@@H]2O[C@@]3(C)CC[C@H]4[C@H](C)CC[C@@H]1[C@@]24OO3 [compound 11, Artesunate]
Second: O=C(/C=C/c1ccc(O)c(O)c1)O[C@@H]1C[C@](O)(C(=O)O)C[C@@H](O)[C@H]1O [compound 20, Chlorogenic acid]
The activity at 100 µM of the first is higher: 106% for the first, 95.2% for the second.

First: C=CCc1ccc(O)c(-c2cc(CC=C)ccc2O)c1 [compound 48, Magnolol]
Second: C=C[C@H]1CN2CC[C@H]1C[C@H]2[C@H](O)c1ccnc2ccccc12 [compound 21, Cinchonidine]
The activity at 100 µM of the first is higher: 72.2% for the first, 59.3% for the second.

Molecule `COc1ccc(-c2cc(=O)c3c(OC)c(OC)c(OC)c(OC)c3o2)cc1OC` [compound 58, Nobiletin] has an activity at 100 µM of 83.4%.

From article PMC9465256, “Discovering monoacylglycerol lipase inhibitors by a combination of fluorogenic substrate assay and activity-based protein profiling” (Frontiers in Pharmacology, 2022)
